Measured values published in the supplement of paper PMC10307832.

Tests used:
[1] = compound: C1=CC2=C(C=C(C(=C2N=C1)O)N=NC3=CC4=C(C=C3)C=C(C=C4)S(=O)(=O)O)S(=O)(=O)O + COc1cc2c(Oc3ccc(NC(=O)C4(C(=O)Nc5ccc(F)cc5)CC4)cc3F)ccnc2cc1OCCCN1CCOCC1 [Foretinib] (partner 0.25 µM); assay: relative viability (nuclei count vs DMSO), 5 days (fraction); higher = more cells survive
Outline: (§1)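 Relative viability divides the nuclei count in treated wells by that in vehicle wells. Lung cancer cell lines were seeded in 1536-well plates, dosed by pin tool the next day, and fixed and stained after 5 days in one step with final 0.05% Triton X-100, 1% formaldehyde and 1 ug/ml Hoechst. Dosing was a single drug or a fixed anchor-drug dose plus five library-drug doses (not always all listed) in √10 steps, and values are medians of duplicate plates imaged at 4×.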

AT-7519 + Tozasertib = compound: O=C(NC1CCNCC1)c1n[nH]cc1NC(=O)c1c(Cl)cccc1Cl [AT-7519] + Cc1cc(Nc2cc(N3CCN(C)CC3)nc(Sc3ccc(NC(=O)C4CC4)cc3)n2)n[nH]1 [Tozasertib] (partner 0.1 µM); assay: as above
Outline: as §1

Cell Line	relative viability ([1]; first compound 0.08 µM)	relative viability ([1]; first compound 0.253 µM)	relative viability ([1]; first compound 0.8 µM)	relative viability ([1]; first compound 2.53 µM)	relative viability ([1]; first compound 8 µM)	relative viability (AT-7519 + Tozasertib; first compound 0.01 µM)	relative viability (AT-7519 + Tozasertib; first compound 0.03162 µM)	relative viability (AT-7519 + Tozasertib; first compound 0.3162 µM)	relative viability (AT-7519 + Tozasertib; first compound 1 µM)
NCI-H1975	0.912	1.02	0.916	1.04	0.952	0.609	0.7	0.626	0.133
CAL-12T	1.08	1.25	1.12	1.06	0.772	0.298	0.33	0.213	0.122
NCI-H1623	0.845	0.874	0.854	0.832	0.6	0.378	0.401	0.518	0.393
HCC-44						1.14	0.809	0.303	0.231
EKVX	0.818	0.712	0.797	0.861	0.272	0.454	0.389	0.403	0.531
NCI-H1651	0.923	0.727	0.864	0.857	0.623	0.7	0.679	0.646	0.556
NCI-H1944	0.899	0.937	0.93	0.769	0.748	0.25	0.24	0.249	0.213
NCI-H1703	0.334		0.356	0.363	0.302				
Calu-6	0.887	0.846	0.92	0.886	0.912				
EBC-1	0.1	0.106	0.104	0.0986	0.0948				
SW 1573	1.1	1.02	1.02	1.01	0.444	0.151	0.151	0.143	0.125
A-427	0.986	1.06	1.01	1.08	1.03	0.26	0.211	0.207	0.14
NCI-H2347	1.07	1.12	0.766	1.13	0.801	0.635	0.512	0.425	0.442
NCI-H1355	1.1	0.988	0.92	1.03	0.996	0.566	0.535	0.537	0.508
NCI-H358	0.778	0.61	0.635	0.651	0.884	0.111	0.116	0.0818	0.0852
PC-3 [JPC-3]	1.1	1.03	1.08	0.99	0.951	0.93	0.903	0.88	0.902
NCI-H2228	0.902	0.826	0.87	0.878	0.923	0.253	0.273	0.227	0.179
HOP-62	1.23	1.03	1.13	1.15	1.04	0.344	0.279	0.353	0.399
HARA	1.23	0.896	0.914	0.901	0.821	0.129	0.0981	0.147	0.155
NCI-H838	1.13	1.06	1.04	1.03	1.04	0.315	0.277	0.291	0.187
NCI-H1755	0.915	0.916	0.869	0.944	0.89	0.489	0.618	0.578	0.547

Cell Line	relative viability ([1]; first compound 0.08 µM)	relative viability ([1]; first compound 0.253 µM)	relative viability ([1]; first compound 0.8 µM)	relative viability ([1]; first compound 2.53 µM)	relative viability ([1]; first compound 8 µM)	relative viability (AT-7519 + Tozasertib; first compound 0.01 µM)	relative viability (AT-7519 + Tozasertib; first compound 0.03162 µM)	relative viability (AT-7519 + Tozasertib; first compound 0.3162 µM)	relative viability (AT-7519 + Tozasertib; first compound 1 µM)
HCC-78	0.608	0.571	0.525	0.563	0.3	0.631	0.451	0.49	0.326
IA-LM	1.3	1.01	1.1	1.18	1.12				
NCI-H322M	1.1	0.989	0.919	0.89	0.95	0.493	0.497	0.361	0.196
NCI-H3122	0.967	0.977	0.925	0.982	0.973	0.535	0.41	0.175	0.136
COR-L23	1.01	0.961	1.02	1.06	0.995	0.177	0.189	0.148	0.144
NCI-H2087	1.07	1.14	0.873	1.1	0.921	0.255	0.269	0.282	0.0867
LC-2-ad	1.13	0.874	0.966	0.906	0.865	0.49	0.467	0.519	0.266
NCI-H1915	1.12	1.04	1.09	1.13	1.12	0.482	0.461	0.456	0.347
NCI-H1793	0.539	0.606	0.674	0.749	0.71	0.32	0.323	0.33	0.312
NCI-H2023	0.769	0.747	0.794	0.997	0.876	0.362	0.379	0.295	0.135
COR-L 105	0.961	0.94	1.03	1.02	0.886	0.327	0.382	0.378	0.413
RERF-LC-KJ	1.02	0.835	0.837	0.999	0.844	0.426	0.505	0.5	0.204
LXF-289	1.09	0.987	0.998	0.974	0.914	0.159	0.184	0.195	0.178
PC-14	1.16	0.905	0.815	0.971	1.11	0.591	0.677	0.526	0.392
NCI-H650	1.13	1.07	1.01	1.02	1.06	0.784	0.646	0.716	0.675
NCI-H1666	1.05	0.962	0.962	0.958	0.747	0.539	0.571	0.501	0.413
NCI-H2085	1.08	0.886	0.894	0.963	0.634	0.768	0.853	0.787	0.819
NCI-H1734	0.916	0.892	0.777	0.891	0.88	0.296	0.261	0.25	0.102
NCI-H2126	1.22	1.16	1.22	1.25	1.15	0.946	0.865	0.504	0.32
EMC-BAC-2	1.07	0.987	1.04	1.07	0.842	0.339	0.286	0.302	0.308
NCI-H1993	0.766	0.78	0.825	0.734	0.643	0.547	0.584	0.544	0.506

Cell Line	relative viability ([1]; first compound 0.08 µM)	relative viability ([1]; first compound 0.253 µM)	relative viability ([1]; first compound 0.8 µM)	relative viability ([1]; first compound 2.53 µM)	relative viability ([1]; first compound 8 µM)	relative viability (AT-7519 + Tozasertib; first compound 0.01 µM)	relative viability (AT-7519 + Tozasertib; first compound 0.03162 µM)	relative viability (AT-7519 + Tozasertib; first compound 0.3162 µM)	relative viability (AT-7519 + Tozasertib; first compound 1 µM)
NCI-H520	1.01	0.828	0.901	0.887	1.05	0.438	0.453	0.399	0.385
NCI-H647	1.33	1.09	1.14	1.28	1.3	0.44	0.218	0.22	0.227
SK-LU-1	1.01	0.768	0.787	0.787	0.889	0.306	0.364	0.254	0.264
ChaGo-K-1	0.953	0.986	0.855	1.02	0.927	0.224	0.23	0.215	0.204
NCI-H2342	1.22	1.1	1.15	1.11	1.05	0.483	0.52	0.493	0.557
NCI-H1299	1.17	1.04	1.04	1.09	1.06				
NCI-H1650	1.34	1.17	1.38	1.01	0.448	0.532	0.436	0.392	0.148
NCI-H2009	1.3	1.25	1.18	1.28	0.739	0.751	0.72	0.703	0.515
LOU-NH91	0.974	0.946	0.93	0.917	1.01	0.722	0.679	0.676	0.57
NCI-H2405	1.1	1.04	1.06	1.03	1.04	0.819	0.797	0.725	0.463
SW 900	0.806	0.9	0.912	0.786	0.741	0.613	0.484	0.639	0.375
LCLC-97TM1	0.938	0.932	0.865	0.93	0.986	0.24	0.208	0.27	0.124
NCI-H596	0.902	0.904	0.82	1.01	0.737	0.78	0.811	1	0.849
NCI-H727	0.939	0.759	0.835	1.03	0.774	0.574	0.551	0.519	0.367
H3255	0.693	0.851	0.835	0.916	0.628	0.998	0.506	0.622	0.582
NCI-H1648						0.37		0.371	0.405
NCI-H522							0.514	0.57	0.486
A549	1.06	0.954	0.929	0.928	0.928				
NCI-H1563	1.04	1.02	0.91	0.996	0.895				
